Results from patent US20080009418A1, “Selective Inhibitors” (Alchemia LTD., priority 2004, published 2008).

Tests used:
Human opioid (ORL1) = molecular target: T1, Human opioid (ORL1) (Homo sapiens, UniProt P41146); assay: Radioligand binding, human opioid ORL1 membranes, FlashPlate, [125I]-Nociceptin; conditions: compound at 10 μM, [125I]-Nociceptin
T1 construct: purchased Perkin Elmer Biosignal
Outline: (§1)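 Cloned human receptor membranes were coated onto FlashPlate wells and incubated with radioligand and compound (added from a 0.5 mM DMSO daughter plate) for 1 hour at room temperature in the dark. Scintillation counting gave percent inhibition, with DMSO defining total and reference ligand defining non-specific binding.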

Mouse urotensin (mUR2) = molecular target: T2, Mouse urotensin (mUR2) (Mus musculus, UniProt Q8VIH9); assay: Radioligand binding, mouse urotensin mUR2 membranes, FlashPlate, [125I]-Urotensin II; conditions: compound at 10 μM, [125I]-Urotensin II
T2 construct: purchased Perkin Elmer Biosignal
T2 sequence (Q8VIH9 1-385): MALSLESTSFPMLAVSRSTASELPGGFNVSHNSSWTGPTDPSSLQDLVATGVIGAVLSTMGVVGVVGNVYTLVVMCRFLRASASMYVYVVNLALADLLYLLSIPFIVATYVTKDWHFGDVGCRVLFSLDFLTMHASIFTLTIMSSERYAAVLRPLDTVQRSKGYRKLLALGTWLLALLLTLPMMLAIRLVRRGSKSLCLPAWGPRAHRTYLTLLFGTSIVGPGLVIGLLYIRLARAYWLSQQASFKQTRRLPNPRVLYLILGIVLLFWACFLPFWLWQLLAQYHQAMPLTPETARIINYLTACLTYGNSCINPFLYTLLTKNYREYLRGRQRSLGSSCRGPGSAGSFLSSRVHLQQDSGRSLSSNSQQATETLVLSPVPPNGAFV
Outline: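 Cloned mouse urotensin (mUR2) receptor membranes from Perkin Elmer Biosignal were immobilized in FlashPlate microplates using a proprietary coating. Each well got 19.5 μl buffer, then 0.5 μl of DMSO, reference ligand, or compound. Adding 5 μl of [125I]-Urotensin II, diluted to 5× final concentration in binding buffer, started binding. Plates were sealed with TopSeal-A and incubated 1 hour at room temperature in the dark. Wells were counted for 30 seconds each on a TopCount after a 60-second delay, and percentage inhibition was calculated.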

Human κ-Opioid (KOP) = molecular target: T3, Human κ-Opioid (KOP) (Homo sapiens, UniProt P41145); assay: Radioligand binding, human κ-opioid (KOP) membranes, filtration, [3H]-Diprenorphine; conditions: compound at 10 μM, [3H]-Diprenorphine
T3 construct: purchased Perkin Elmer Biosignal
T3 sequence (P41145 whole entry): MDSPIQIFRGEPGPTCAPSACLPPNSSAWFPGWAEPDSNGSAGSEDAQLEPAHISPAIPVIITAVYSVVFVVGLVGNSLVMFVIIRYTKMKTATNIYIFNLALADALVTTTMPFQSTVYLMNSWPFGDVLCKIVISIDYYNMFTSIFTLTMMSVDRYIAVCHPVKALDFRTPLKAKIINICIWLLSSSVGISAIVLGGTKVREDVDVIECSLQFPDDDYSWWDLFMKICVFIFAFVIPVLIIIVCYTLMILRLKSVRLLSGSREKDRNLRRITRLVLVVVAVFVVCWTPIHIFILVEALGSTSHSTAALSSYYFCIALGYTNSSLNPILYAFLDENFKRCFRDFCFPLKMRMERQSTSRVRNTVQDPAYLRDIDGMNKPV
Outline: (§2)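 Membranes from cloned human receptors were incubated with compound and radioligand for 1 hour at room temperature. Bound ligand was collected on 0.3% PEI-soaked filters, washed with cold 50 mM Tris-HCl pH 7.4, and counted by scintillation. Percent inhibition was computed against DMSO totals and reference-ligand nonspecific wells.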

Human μ-opioid (MOP) = molecular target: T4, Human μ-opioid (MOP) (Homo sapiens, UniProt P35372); assay: Radioligand binding, human μ-opioid (MOP) membranes, FlashPlate, [3H]-Naloxone; conditions: compound at 10 μM, [3H]-Naloxone
T4 construct: purchased Perkin Elmer Biosignal
T4 sequence (P35372 whole entry): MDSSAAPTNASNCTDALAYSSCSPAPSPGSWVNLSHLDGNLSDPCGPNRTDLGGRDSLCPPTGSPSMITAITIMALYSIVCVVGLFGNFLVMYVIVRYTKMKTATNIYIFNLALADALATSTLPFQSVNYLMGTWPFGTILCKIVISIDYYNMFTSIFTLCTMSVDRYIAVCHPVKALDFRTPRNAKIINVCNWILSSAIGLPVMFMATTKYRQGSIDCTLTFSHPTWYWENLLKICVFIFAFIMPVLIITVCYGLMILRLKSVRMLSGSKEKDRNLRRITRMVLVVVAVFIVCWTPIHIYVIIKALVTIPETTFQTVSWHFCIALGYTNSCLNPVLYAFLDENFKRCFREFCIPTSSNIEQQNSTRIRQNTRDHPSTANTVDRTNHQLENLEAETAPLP
Outline: as §1

Human neurokinin (NK1) = molecular target: T5, Human neurokinin (NK1) (Homo sapiens, UniProt P25103); assay: Radioligand binding, human neurokinin NK1 membranes, filtration, [125I]-Substance P; conditions: compound at 10 μM, [125I]-Substance P
T5 construct: purchased Perkin Elmer Biosignal
T5 sequence (P25103 whole entry): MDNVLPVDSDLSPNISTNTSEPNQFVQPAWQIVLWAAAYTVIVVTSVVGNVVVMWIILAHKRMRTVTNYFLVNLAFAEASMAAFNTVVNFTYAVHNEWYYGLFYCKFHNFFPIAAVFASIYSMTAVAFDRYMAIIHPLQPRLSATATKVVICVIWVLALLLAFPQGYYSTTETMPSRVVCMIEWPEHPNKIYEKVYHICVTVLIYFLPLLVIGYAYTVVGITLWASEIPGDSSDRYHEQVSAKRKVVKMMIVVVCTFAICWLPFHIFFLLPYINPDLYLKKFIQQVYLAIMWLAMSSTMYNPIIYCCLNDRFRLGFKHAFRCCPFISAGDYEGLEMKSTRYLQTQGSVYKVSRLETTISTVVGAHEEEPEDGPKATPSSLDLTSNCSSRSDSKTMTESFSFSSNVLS
Outline: as §2

Human Melanocortin (MC4) = molecular target: T6, Human Melanocortin (MC4) (Homo sapiens, UniProt P32245); assay: Radioligand binding, human melanocortin MC4 membranes, FlashPlate, [125I]-NDP-αMSH; conditions: compound at 10 μM, [125I]-NDP-αMSH
T6 construct: purchased Perkin Elmer Biosignal
T6 sequence (P32245 whole entry): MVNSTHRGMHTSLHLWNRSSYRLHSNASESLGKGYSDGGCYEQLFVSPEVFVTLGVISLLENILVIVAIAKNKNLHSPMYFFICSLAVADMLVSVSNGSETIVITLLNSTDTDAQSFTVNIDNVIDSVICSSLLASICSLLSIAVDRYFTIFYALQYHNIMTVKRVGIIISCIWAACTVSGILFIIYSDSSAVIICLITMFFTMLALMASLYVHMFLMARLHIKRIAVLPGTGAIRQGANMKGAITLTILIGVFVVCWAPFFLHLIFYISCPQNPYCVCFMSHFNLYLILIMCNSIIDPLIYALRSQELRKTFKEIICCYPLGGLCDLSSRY
Outline: as §1

Human Melanocortin (MC3) = molecular target: T7, Human Melanocortin (MC3) (Homo sapiens, UniProt P41968); assay: Radioligand binding, human melanocortin MC3 membranes, FlashPlate, [125I]-NDP-αMSH; conditions: compound at 10 μM, [125I]-NDP-αMSH
T7 construct: purchased Perkin Elmer Biosignal
T7 sequence (P41968 whole entry): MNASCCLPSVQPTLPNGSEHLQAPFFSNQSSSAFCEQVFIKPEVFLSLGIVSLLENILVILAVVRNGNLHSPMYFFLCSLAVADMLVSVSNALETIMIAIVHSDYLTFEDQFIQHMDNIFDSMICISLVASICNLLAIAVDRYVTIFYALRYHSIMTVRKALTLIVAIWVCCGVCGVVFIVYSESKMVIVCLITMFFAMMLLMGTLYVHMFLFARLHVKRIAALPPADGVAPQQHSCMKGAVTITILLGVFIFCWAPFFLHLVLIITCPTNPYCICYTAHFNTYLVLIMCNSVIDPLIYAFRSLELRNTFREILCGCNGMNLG
Outline: as §1

Human δ-opioid (DOP) = molecular target: T8, Human δ-opioid (DOP) (Homo sapiens, UniProt P41143); assay: Radioligand binding, human δ-opioid (DOP) membranes, FlashPlate, [3H]-Bremazocine; conditions: compound at 10 μM, [3H]-Bremazocine
T8 construct: purchased Perkin Elmer Biosignal
T8 sequence (P41143 whole entry): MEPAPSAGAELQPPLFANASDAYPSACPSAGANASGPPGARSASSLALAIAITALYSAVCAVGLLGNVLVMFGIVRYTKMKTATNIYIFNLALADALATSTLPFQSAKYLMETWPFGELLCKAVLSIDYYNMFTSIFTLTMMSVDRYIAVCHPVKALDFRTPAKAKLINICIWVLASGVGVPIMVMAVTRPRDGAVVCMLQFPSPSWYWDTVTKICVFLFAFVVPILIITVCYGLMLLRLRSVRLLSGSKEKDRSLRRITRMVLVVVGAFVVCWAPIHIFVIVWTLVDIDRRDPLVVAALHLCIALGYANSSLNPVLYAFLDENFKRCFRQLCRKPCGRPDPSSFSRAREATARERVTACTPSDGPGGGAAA
Outline: as §1

Human melanocortin (MC5) = molecular target: T9, Human melanocortin (MC5) (Homo sapiens, UniProt P33032); assay: Radioligand binding, human melanocortin MC5 membranes, FlashPlate, [125I]-NDP-αMSH; conditions: compound at 10 μM, [125I]-NDP-αMSH
T9 construct: purchased Perkin Elmer Biosignal
T9 sequence (P33032 whole entry): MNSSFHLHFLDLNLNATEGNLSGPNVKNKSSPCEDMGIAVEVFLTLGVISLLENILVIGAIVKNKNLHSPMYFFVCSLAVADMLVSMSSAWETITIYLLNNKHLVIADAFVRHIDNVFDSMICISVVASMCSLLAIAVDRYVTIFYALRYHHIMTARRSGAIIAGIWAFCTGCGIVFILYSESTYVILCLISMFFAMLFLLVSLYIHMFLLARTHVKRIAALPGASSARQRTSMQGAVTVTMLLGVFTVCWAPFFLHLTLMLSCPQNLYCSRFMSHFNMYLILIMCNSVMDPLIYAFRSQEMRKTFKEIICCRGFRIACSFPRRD
Outline: as §1

[1] = molecular target: T10, Human neuropeptide Y (NPY-Y1) (Homo sapiens, UniProt P25929); assay: Radioligand binding, human neuropeptide Y NPY-Y1 membranes, FlashPlate, [125I]-PYY; conditions: compound at 10 μM, [125I]-PYY
T10 construct: purchased Perkin Elmer Biosignal
T10 sequence (P25929 1-384): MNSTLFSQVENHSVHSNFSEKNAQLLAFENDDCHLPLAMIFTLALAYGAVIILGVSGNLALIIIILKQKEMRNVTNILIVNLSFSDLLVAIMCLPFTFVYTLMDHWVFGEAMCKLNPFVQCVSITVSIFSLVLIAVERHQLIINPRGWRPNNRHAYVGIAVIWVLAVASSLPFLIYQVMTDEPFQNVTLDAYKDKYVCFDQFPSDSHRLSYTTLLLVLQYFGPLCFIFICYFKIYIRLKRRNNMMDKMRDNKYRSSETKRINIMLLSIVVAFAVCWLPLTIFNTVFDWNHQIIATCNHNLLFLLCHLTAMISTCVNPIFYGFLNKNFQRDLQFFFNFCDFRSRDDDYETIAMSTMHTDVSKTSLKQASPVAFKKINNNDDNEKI
Outline: as §1

[2] = molecular target: T11, Human melanin-concentrating hormone (MCH1) (Homo sapiens, UniProt Q99705); assay: Radioligand binding, human melanin-concentrating hormone MCH1 membranes, FlashPlate, [125I]-S36057; conditions: compound at 10 μM
T11 construct: purchased Perkin Elmer Biosignal
T11 sequence (Q99705 whole entry): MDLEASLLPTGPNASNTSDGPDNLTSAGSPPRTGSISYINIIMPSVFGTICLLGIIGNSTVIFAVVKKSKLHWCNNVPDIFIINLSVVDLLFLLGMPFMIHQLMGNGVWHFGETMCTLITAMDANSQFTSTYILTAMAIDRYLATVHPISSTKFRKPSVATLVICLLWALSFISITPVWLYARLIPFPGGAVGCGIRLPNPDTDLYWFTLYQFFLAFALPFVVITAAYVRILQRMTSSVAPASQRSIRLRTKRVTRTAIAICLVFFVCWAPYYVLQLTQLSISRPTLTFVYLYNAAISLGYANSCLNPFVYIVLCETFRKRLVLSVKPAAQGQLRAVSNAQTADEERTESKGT
Outline: as §1

T1 sequence (P41146 whole entry): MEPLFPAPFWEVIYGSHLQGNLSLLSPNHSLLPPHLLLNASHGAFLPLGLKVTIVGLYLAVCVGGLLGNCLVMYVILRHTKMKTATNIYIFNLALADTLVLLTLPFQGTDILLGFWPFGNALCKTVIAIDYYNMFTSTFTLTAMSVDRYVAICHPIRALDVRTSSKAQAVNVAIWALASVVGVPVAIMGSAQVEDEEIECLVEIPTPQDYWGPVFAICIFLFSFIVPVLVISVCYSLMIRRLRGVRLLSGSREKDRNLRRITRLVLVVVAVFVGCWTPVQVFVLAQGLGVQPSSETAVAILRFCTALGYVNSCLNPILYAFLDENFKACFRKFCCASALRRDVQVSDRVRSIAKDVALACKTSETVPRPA

COCC1OC(OCc2ccc(Cl)cc2)C(NC(=O)CCCN)C(OCc2ccccc2)C1O (stereo not shown) [compound 197]
A10: inhibition of radioligand binding (Human opioid (ORL1); FlashPlate): − (“−” indicates less than 50% inhibition at 10 μM) | A11: inhibition of radioligand binding (Mouse urotensin (mUR2); FlashPlate): − (“−” indicates less than 50% inhibition at 10 μM) | A2: inhibition of radioligand binding (Human κ-Opioid (KOP); filtration): − (“−” indicates less than 50% inhibition at 10 μM) | A7: inhibition of radioligand binding (Human μ-opioid (MOP); FlashPlate): − (“−” indicates less than 50% inhibition at 10 μM) | A8: inhibition of radioligand binding (Human neurokinin (NK1); filtration): + (“+” indicates greater than 50% inhibition at 10 μM) | A4: inhibition of radioligand binding (Human Melanocortin (MC4); FlashPlate): − (“−” indicates less than 50% inhibition at 10 μM) | A3: inhibition of radioligand binding (Human Melanocortin (MC3); FlashPlate): − (“−” indicates less than 50% inhibition at 10 μM) | A1: inhibition of radioligand binding (Human δ-opioid (DOP); FlashPlate): − (“−” indicates less than 50% inhibition at 10 μM) | A5: inhibition of radioligand binding (Human melanocortin (MC5); FlashPlate): − (“−” indicates less than 50% inhibition at 10 μM) | A9: inhibition of radioligand binding ([1]; FlashPlate): − (“−” indicates less than 50% inhibition at 10 μM) | A6: inhibition of radioligand binding ([2]; [125I]-S36057, FlashPlate): − (“−” indicates less than 50% inhibition at 10 μM)

COCC1OC(OCc2ccc(Cl)cc2)C(NC(=O)CCNC(=N)N)C(OCc2ccc(-c3ccccc3)cc2)C1O (stereo not shown) [compound 206]
A10: inhibition of radioligand binding (Human opioid (ORL1); FlashPlate): − (“−” indicates less than 50% inhibition at 10 μM) | A11: inhibition of radioligand binding (Mouse urotensin (mUR2); FlashPlate): − (“−” indicates less than 50% inhibition at 10 μM) | A2: inhibition of radioligand binding (Human κ-Opioid (KOP); filtration): − (“−” indicates less than 50% inhibition at 10 μM) | A7: inhibition of radioligand binding (Human μ-opioid (MOP); FlashPlate): − (“−” indicates less than 50% inhibition at 10 μM) | A8: inhibition of radioligand binding (Human neurokinin (NK1); filtration): + (“+” indicates greater than 50% inhibition at 10 μM) | A4: inhibition of radioligand binding (Human Melanocortin (MC4); FlashPlate): + (“+” indicates greater than 50% inhibition at 10 μM) | A3: inhibition of radioligand binding (Human Melanocortin (MC3); FlashPlate): − (“−” indicates less than 50% inhibition at 10 μM) | A1: inhibition of radioligand binding (Human δ-opioid (DOP); FlashPlate): − (“−” indicates less than 50% inhibition at 10 μM) | A5: inhibition of radioligand binding (Human melanocortin (MC5); FlashPlate): + (“+” indicates greater than 50% inhibition at 10 μM) | A9: inhibition of radioligand binding ([1]; FlashPlate): − (“−” indicates less than 50% inhibition at 10 μM) | A6: inhibition of radioligand binding ([2]; [125I]-S36057, FlashPlate): + (“+” indicates greater than 50% inhibition at 10 μM)

CO[C@H]1[C@H](O)[C@@H](COCc2ccc(-c3ccccc3)cc2)OC(OCc2ccc(Cl)cc2)[C@@H]1NC(=O)CCCNC(=N)N (stereo partly shown) [compound 96]
A10 radioligand binding, percentage inhibition (Human opioid (ORL1)): + (“+” indicates greater than 50% inhibition at 10 μM) | A11 radioligand binding, percentage inhibition (Mouse urotensin (mUR2)): − (“−” indicates less than 50% inhibition at 10 μM) | A2 radioligand binding, percentage inhibition (Human κ-Opioid (KOP)): + (“+” indicates greater than 50% inhibition at 10 μM) | A7 radioligand binding, percentage inhibition (Human μ-opioid (MOP)): − (“−” indicates less than 50% inhibition at 10 μM) | A8 radioligand binding, percentage inhibition (Human neurokinin (NK1)): + (“+” indicates greater than 50% inhibition at 10 μM) | A4 radioligand binding, percentage inhibition (Human Melanocortin (MC4)): + (“+” indicates greater than 50% inhibition at 10 μM) | A3 radioligand binding, percentage inhibition (Human Melanocortin (MC3)): + (“+” indicates greater than 50% inhibition at 10 μM) | A1 radioligand binding, percentage inhibition (Human δ-opioid (DOP)): − (“−” indicates less than 50% inhibition at 10 μM) | A5 radioligand binding, percentage inhibition (Human melanocortin (MC5)): + (“+” indicates greater than 50% inhibition at 10 μM) | A9 radioligand binding, percentage inhibition [1]: + (“+” indicates greater than 50% inhibition at 10 μM) | A6 radioligand binding, percentage inhibition ([2]; [125I]-S36057): + (“+” indicates greater than 50% inhibition at 10 μM)

NCCCC(=O)NC1C(OCc2ccc3ccccc3c2)OC(COCc2ccc(Cl)cc2)C(O)C1OCc1ccc(Cl)cc1 (single isomer, unassigned) [compound 459]
A10: inhibition of radioligand binding (Human opioid (ORL1); human ORL1 membranes, 10 µM): + (“+” indicates greater than 50% inhibition at 10 μM) | A11: inhibition of radioligand binding (Mouse urotensin (mUR2); mouse mUR2 membranes): − (“−” indicates less than 50% inhibition at 10 μM) | A2: inhibition of radioligand binding (Human κ-Opioid (KOP); human KOP membranes): − (“−” indicates less than 50% inhibition at 10 μM) | A7: inhibition of radioligand binding (Human μ-opioid (MOP); human MOP membranes, 10 µM): − (“−” indicates less than 50% inhibition at 10 μM) | A8: inhibition of radioligand binding (Human neurokinin (NK1); human NK1 membranes): + (“+” indicates greater than 50% inhibition at 10 μM) | A4: inhibition of radioligand binding (Human Melanocortin (MC4); human MC4 membranes): + (“+” indicates greater than 50% inhibition at 10 μM) | A3: inhibition of radioligand binding (Human Melanocortin (MC3); human MC3 membranes): + (“+” indicates greater than 50% inhibition at 10 μM) | A1: inhibition of radioligand binding (Human δ-opioid (DOP); human DOP membranes): − (“−” indicates less than 50% inhibition at 10 μM) | A5: inhibition of radioligand binding (Human melanocortin (MC5); human MC5 membranes): + (“+” indicates greater than 50% inhibition at 10 μM) | A9: inhibition of radioligand binding ([1]; human NPY-Y1 membranes): − (“−” indicates less than 50% inhibition at 10 μM) | A6: inhibition of radioligand binding ([2]; [125I]-S36057, human MCH1 membranes, 10 µM): + (“+” indicates greater than 50% inhibition at 10 μM)

CSC1OC(COCc2cccc(N)c2)C(O)C(OCc2ccc(Cl)cc2)C1NC(=O)c1ccccc1 (stereo not shown) [compound 332]
A10: inhibition of radioligand binding, human opioid (ORL1) (Human opioid (ORL1)): − (“−” indicates less than 50% inhibition at 10 μM) | A11: inhibition of radioligand binding, mouse urotensin (mUR2) (Mouse urotensin (mUR2)): − (“−” indicates less than 50% inhibition at 10 μM) | A2: inhibition of radioligand binding, human κ-opioid (KOP) (Human κ-Opioid (KOP)): − (“−” indicates less than 50% inhibition at 10 μM) | A7: inhibition of radioligand binding, human μ-opioid (MOP) (Human μ-opioid (MOP)): − (“−” indicates less than 50% inhibition at 10 μM) | A8: inhibition of radioligand binding, human neurokinin (NK1) (Human neurokinin (NK1)): + (“+” indicates greater than 50% inhibition at 10 μM) | A4: inhibition of radioligand binding, human melanocortin (MC4) (Human Melanocortin (MC4)): − (“−” indicates less than 50% inhibition at 10 μM) | A3: inhibition of radioligand binding, human melanocortin (MC3) (Human Melanocortin (MC3)): − (“−” indicates less than 50% inhibition at 10 μM) | A1: inhibition of radioligand binding, human δ-opioid (DOP) (Human δ-opioid (DOP)): − (“−” indicates less than 50% inhibition at 10 μM) | A5: inhibition of radioligand binding, human melanocortin (MC5) (Human melanocortin (MC5)): − (“−” indicates less than 50% inhibition at 10 μM) | A9: inhibition of radioligand binding, human neuropeptide Y (NPY-Y1) [1]: − (“−” indicates less than 50% inhibition at 10 μM) | A6: inhibition of radioligand binding, human melanin-concentrating hormone (MCH1) ([2]; [125I]-S36057): − (“−” indicates less than 50% inhibition at 10 μM)
